Measured values as given in PubChem BioAssay (NCI).
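In this assay, cells in 96-well plates receive the compound at five concentrations for 48 hours. Endpoints are linearly interpolated between the surrounding concentrations. Here, GI50 denotes the concentration required for 50% inhibition of growth. Definition used: TGI = concentration required for complete inhibition of growth.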

Legend:
Test in all cases: NCI tumour cell line growth inhibition, 48 h
[1] = tested on: MDA-MB-468 breast
[2] = tested on: SF-295 CNS
[3] = tested on: EKVX NSCLC
[4] = tested on: LOX IMVI melanoma
[5] = tested on: PC-3 prostate
[6] = tested on: TK-10 renal
[7] = tested on: 786-0 renal
[8] = tested on: IGROV1 ovarian
[9] = tested on: MDA-MB-435
[10] = tested on: ACHN renal
[11] = tested on: U251 CNS
[12] = tested on: T-47D breast
[13] = tested on: OVCAR-4 ovarian
[14] = tested on: SF-268 CNS
[15] = tested on: OVCAR-3 ovarian
[16] = tested on: UACC-257 melanoma
[17] = tested on: A549 NSCLC
[18] = tested on: BT-549 breast
[19] = tested on: HT29 colon
[20] = tested on: NCI-H522 lung
[21] = tested on: CCRF-CEM leukemia
[22] = tested on: SK-OV-3 ovarian
[23] = tested on: HL-60(TB) leukemia
[24] = tested on: OVCAR-5 ovarian
[25] = tested on: RPMI-8226 leukemia
[26] = tested on: KM12 colon
[27] = tested on: CAKI-1 renal
[28] = tested on: COLO 205 colon
[29] = tested on: M14 melanoma
[30] = tested on: SF-539 CNS
[31] = tested on: HOP-62 NSCLC
[32] = tested on: NCI-H23 lung
[33] = tested on: SW-620 colon
[34] = tested on: SN12C renal
[35] = tested on: HS 578T breast
[36] = tested on: MOLT-4 leukemia
[37] = tested on: MCF7 breast
[38] = tested on: SK-MEL-28 melanoma
[39] = tested on: A498 renal
[40] = tested on: NCI-H226 lung
[41] = tested on: MALME-3M melanoma
[42] = tested on: RXF 393 renal
[43] = tested on: OVCAR-8 ovarian
[44] = tested on: K-562 leukemia
[45] = tested on: NCI-H460 lung
[46] = tested on: SK-MEL-5 melanoma
[47] = tested on: DU-145 prostate
[48] = tested on: NCI/ADR-RES ovarian
[49] = tested on: HOP-92 NSCLC
[50] = tested on: HCC-2998 colon
[51] = tested on: SR leukemia
[52] = tested on: HCT-15 colon
[53] = tested on: SNB-19 CNS
[54] = tested on: HCT-116 colon
[55] = tested on: UACC-62 melanoma

**Q.** With C=C1C(=O)O[C@H]2[C@H]1CC/C(COC(=O)CCCCCCCC(=O)OC/C1=C/CC[C@@]3(C)O[C@H]3[C@H]3OC(=O)C(=C)[C@@H]3CC1)=C\CC[C@@]1(C)O[C@@H]21 as the molecule, how does the GI50 [1] read?
**A.** 2.37 µM

**Q.** What about the TGI [1] of the same molecule?
**A.** 6.46 µM

**Q.** What does the source list for Cc1ccc2c(n1)C(=O)C(Cl)=C(Nc1cc(C(F)(F)F)cc(C(F)(F)F)c1)C2=O?
**A.** GI50 [1]: 2.01 µM; TGI [1]: 4.57 µM

**Q.** With CC(C)c1[nH]nc2c(NCc3ccc(-c4ccccn4)cc3)nc(SCCN(C)C)nc12 as the molecule, how does the GI50 [1] read?
**A.** < 0.0129 µM

**Q.** And the TGI [1]?
**A.** < 0.0238 µM

**Q.** Which results are given for CSc1nnc(-c2cc3c([nH]c4ccccc43)c(-c3cccc(O)c3)n2)n1-c1ccc(C)cc1?
**A.** GI50 [1]: 3.7 µM; TGI [1]: 33.7 µM

**Q.** With Cc1nc2c(O)c3c(c(O)c2nc1C)C1C=CC3CC1 as the molecule, how does the GI50 [1] read?
**A.** 0.559 µM

**Q.** What about the TGI [1] of the same molecule?
**A.** 1.97 µM

**Q.** What does the source list for COc1cc2c3c(n([C@@H]4CCOC4)c(=O)c2cc1OC)-c1cc2c(cc1C3=O)OCO2?
**A.** GI50 [1]: < 0.01 µM; TGI [1]: 0.0949 µM

**Q.** With COCCNCc1ccc(-c2cc3nccc(Oc4ccc(NC(=O)C5(C(=O)Nc6ccc(F)cc6)CC5)cc4F)c3s2)nc1 as the molecule, how does the GI50 [1] read?
**A.** 1.74 µM

**Q.** And the TGI [1]?
**A.** 3.41 µM

**Q.** For O=C1NC(=S)/C(=C/c2cn(-c3ccccc3)nc2-c2ccccc2)S1, which GI50 [2] is on record?
**A.** 8.61 µM

**Q.** And the TGI [2]?
**A.** 32.7 µM

**Q.** What about the GI50 [3] of the same molecule?
**A.** 4.1 µM

**Q.** And the TGI [3]?
**A.** > 100 µM

**Q.** What about the GI50 [4] of the same molecule?
**A.** 13.4 µM

**Q.** What about the TGI [4] of the same molecule?
**A.** > 100 µM

**Q.** What about the GI50 [5] of the same molecule?
**A.** 5.76 µM

**Q.** And the TGI [5]?
**A.** > 100 µM

**Q.** What about the GI50 [6] of the same molecule?
**A.** 12.5 µM

**Q.** What about the TGI [6] of the same molecule?
**A.** > 100 µM

**Q.** What about the GI50 [7] of the same molecule?
**A.** 4.79 µM

**Q.** And the TGI [7]?
**A.** > 100 µM

**Q.** What about the GI50 [8] of the same molecule?
**A.** 6.46 µM

**Q.** What about the TGI [8] of the same molecule?
**A.** 45.2 µM

**Q.** What about the GI50 [9] of the same molecule?
**A.** 5.49 µM

**Q.** And the TGI [9]?
**A.** > 100 µM

**Q.** And the GI50 [10]?
**A.** 8.33 µM

**Q.** And the TGI [10]?
**A.** > 100 µM

**Q.** And the GI50 [11]?
**A.** 7.49 µM

**Q.** And the TGI [11]?
**A.** > 100 µM

**Q.** What about the GI50 [12] of the same molecule?
**A.** 4.41 µM

**Q.** What about the TGI [12] of the same molecule?
**A.** > 100 µM

**Q.** And the GI50 [13]?
**A.** 5.24 µM

**Q.** And the TGI [13]?
**A.** > 100 µM

**Q.** What about the GI50 [14] of the same molecule?
**A.** 6.07 µM

**Q.** What about the TGI [14] of the same molecule?
**A.** > 100 µM

**Q.** What about the GI50 [15] of the same molecule?
**A.** 7.1 µM

**Q.** And the TGI [15]?
**A.** 27.1 µM

**Q.** What about the GI50 [16] of the same molecule?
**A.** 6.36 µM

**Q.** What about the TGI [16] of the same molecule?
**A.** > 100 µM

**Q.** What about the GI50 [17] of the same molecule?
**A.** 6.74 µM

**Q.** And the TGI [17]?
**A.** > 100 µM

**Q.** What about the GI50 [18] of the same molecule?
**A.** 2.65 µM

**Q.** What about the TGI [18] of the same molecule?
**A.** 11.3 µM

**Q.** What about the GI50 [19] of the same molecule?
**A.** 9.99 µM

**Q.** What about the TGI [19] of the same molecule?
**A.** 37.1 µM

**Q.** What about the GI50 [20] of the same molecule?
**A.** 4.39 µM

**Q.** What about the TGI [20] of the same molecule?
**A.** 19.3 µM

**Q.** What about the GI50 [21] of the same molecule?
**A.** 4.35 µM

**Q.** And the TGI [21]?
**A.** > 100 µM

**Q.** What about the GI50 [22] of the same molecule?
**A.** 6.82 µM

**Q.** What about the TGI [22] of the same molecule?
**A.** 81.2 µM

**Q.** What about the GI50 [23] of the same molecule?
**A.** 3.94 µM

**Q.** What about the TGI [23] of the same molecule?
**A.** 36.6 µM

**Q.** What about the GI50 [24] of the same molecule?
**A.** 22 µM

**Q.** And the TGI [24]?
**A.** > 100 µM

**Q.** And the GI50 [25]?
**A.** 3.57 µM

**Q.** What about the TGI [25] of the same molecule?
**A.** 94.7 µM

**Q.** And the GI50 [26]?
**A.** 5.8 µM

**Q.** And the TGI [26]?
**A.** 40.2 µM

**Q.** And the GI50 [27]?
**A.** 9.4 µM

**Q.** What about the TGI [27] of the same molecule?
**A.** > 100 µM

**Q.** And the GI50 [1]?
**A.** 3.13 µM

**Q.** And the TGI [1]?
**A.** 21.8 µM

**Q.** What about the GI50 [28] of the same molecule?
**A.** 11.9 µM

**Q.** What about the TGI [28] of the same molecule?
**A.** 32 µM

**Q.** And the GI50 [29]?
**A.** 4.82 µM

**Q.** What about the TGI [29] of the same molecule?
**A.** > 100 µM

**Q.** And the GI50 [30]?
**A.** 6.5 µM

**Q.** What about the TGI [30] of the same molecule?
**A.** 21.8 µM

**Q.** And the GI50 [31]?
**A.** 22.8 µM

**Q.** And the TGI [31]?
**A.** > 100 µM

**Q.** What about the GI50 [32] of the same molecule?
**A.** 4.86 µM

**Q.** What about the TGI [32] of the same molecule?
**A.** 51.6 µM

**Q.** What about the GI50 [33] of the same molecule?
**A.** 9.67 µM

**Q.** And the TGI [33]?
**A.** > 100 µM

**Q.** What about the GI50 [34] of the same molecule?
**A.** 4.73 µM

**Q.** And the TGI [34]?
**A.** > 100 µM

**Q.** And the GI50 [35]?
**A.** 5.73 µM

**Q.** And the TGI [35]?
**A.** 91.6 µM

**Q.** What about the GI50 [36] of the same molecule?
**A.** 3.91 µM

**Q.** What about the TGI [36] of the same molecule?
**A.** 34.4 µM

**Q.** What about the GI50 [37] of the same molecule?
**A.** 4.03 µM

**Q.** What about the TGI [37] of the same molecule?
**A.** > 100 µM

**Q.** What about the GI50 [38] of the same molecule?
**A.** 5.31 µM

**Q.** And the TGI [38]?
**A.** > 100 µM

**Q.** What about the GI50 [39] of the same molecule?
**A.** 5.6 µM

**Q.** And the TGI [39]?
**A.** 41.3 µM

**Q.** And the GI50 [40]?
**A.** 13.4 µM

**Q.** What about the TGI [40] of the same molecule?
**A.** > 100 µM

**Q.** And the GI50 [41]?
**A.** 4.85 µM

**Q.** What about the TGI [41] of the same molecule?
**A.** 35.8 µM

**Q.** What about the GI50 [42] of the same molecule?
**A.** 17.1 µM

**Q.** And the TGI [42]?
**A.** 71.6 µM

**Q.** And the GI50 [43]?
**A.** 16.1 µM

**Q.** What about the TGI [43] of the same molecule?
**A.** 80.8 µM

**Q.** What about the GI50 [44] of the same molecule?
**A.** 5.38 µM

**Q.** What about the TGI [44] of the same molecule?
**A.** > 100 µM

**Q.** And the GI50 [45]?
**A.** 4.89 µM

**Q.** And the TGI [45]?
**A.** 26.2 µM

**Q.** And the GI50 [46]?
**A.** 2.59 µM

**Q.** What about the TGI [46] of the same molecule?
**A.** 7.45 µM

**Q.** What about the GI50 [47] of the same molecule?
**A.** 9.48 µM

**Q.** And the TGI [47]?
**A.** > 100 µM

**Q.** What about the GI50 [48] of the same molecule?
**A.** 7.3 µM

**Q.** What about the TGI [48] of the same molecule?
**A.** > 100 µM

**Q.** And the GI50 [49]?
**A.** 2.3 µM

**Q.** And the TGI [49]?
**A.** 9.73 µM

**Q.** And the GI50 [50]?
**A.** 10.6 µM

**Q.** What about the TGI [50] of the same molecule?
**A.** 44.6 µM

**Q.** And the GI50 [51]?
**A.** 6.65 µM

**Q.** And the TGI [51]?
**A.** 32.3 µM

**Q.** What about the GI50 [52] of the same molecule?
**A.** 4.29 µM

**Q.** And the TGI [52]?
**A.** 33.8 µM

**Q.** And the GI50 [53]?
**A.** 4.91 µM

**Q.** What about the TGI [53] of the same molecule?
**A.** > 100 µM

**Q.** And the GI50 [54]?
**A.** 5.57 µM

**Q.** What about the TGI [54] of the same molecule?
**A.** > 100 µM

**Q.** And the GI50 [55]?
**A.** 3.49 µM

**Q.** What about the TGI [55] of the same molecule?
**A.** 15.3 µM
